Assay results taken from publication PMC4786809, “Determination of cyanidin 3-glucoside in rat brain, liver and kidneys by UPLC/MS-MS and its application to a short-term pharmacokinetic study” (Scientific Reports, 2016).
“And” between values parts separate entries of the source, which are not always exact repeats. Equal entries are not always repeated. Where two headings read alike, the source gives them in different places.

Legend:
[1] = system: endothelial cell membrane; parameters: method as in PMID 22387282; settings: cited from earlier work
[2] = Plasma concentrations and pharmacokinetics after intravenous bolus of C3G (NCA and two-compartment model); format: in vivo, Wistar rats; settings: for C0: read-out: C0 (back-extrapolated concentration)
Text: (§1) Twenty-two male Wistar rats (Rattus Norvegicus, Harlan Italy S.r.l.), of same age (15 weeks), 293–390 g of body weight, were used. The rats were randomly divided into 5 groups, according to the time that elapsed after intravenous administration of the test compound, and one control group. Each time point was represented by four biological replicates. All animals were allowed to acclimate to the animal facility of the University of Trieste for at least 2 week before studies were initiated. The experimental design was vetted and approved by the bioethical committee of the University of Trieste (internal code 140PAS14), according to the provisions of the European Community Council Directive 2010/63/EU[39]. The methods were carried out in accordance with the approved guidelines. The animals (n = 22) were maintained in cages in a room at 23 ± 2 °C, 50–60% humidity with a 12-hour light-dark cycle. The night before the experiment, food was withdrawn from the cages but water was given ad libitum. On the day of the experiment, the rats were anesthetized with intra-peritoneal administration of tiletamine/zolazepam (1:1, 25 mg/kg body weight) and xylazine (10 mg/kg body weight). During anaesthesia (10 min in all cases), the heart and ventilation rate were monitored. The rats were placed on their backs, with the ventral side up and with the legs spread separately on a thermo-isolated support. The penis was extruded by sliding the prepuce downwards. The dorsal penis vein was then seen along both sides of the penis and exactly 10 min after anaesthesia 0.2 mL PBS without (control group) or with (treated group) 668 nmol cyanidin 3-glucoside (C3G) in PBS was injected using a 24-G hypodermic needle. Then the injection site was pressed with a swab for a few seconds, and the glans was encouraged to retract to prevent further bleeding. One min before sacrificing the rats, sodium heparin (0.1 ml, 500 IU) was injected again into the dorsal penis vein, exposed in the same way. […] Blood draining and excision of the organs were carried out according to the literature. In detail, blood was collected from the neck of rats hold upside down, immediately after their decapitation, which happened at the time points sharp. Exsanguination took 5 seconds; laparotomy and excision of the liver and the kidneys took 5 more seconds. The post-decapitation procedures were standardised. Urine was collected through the urinary bladder with a syringe before decapitation. Kidneys, liver and brain were washed with mQ water, immediately frozen in liquid nitrogen and stored at −80 °C.
(§2) Immediately after sampling, 5 mL of blood were transferred into ice-cold (−20 °C), deoxygenated aqueous 95% methanol in a ratio 1:9 (v/v). The urine was weighted and transferred into ice-cold, deoxygenated aqueous 95% methanol at a ratio of 1:9 (w/v). Frozen kidneys, liver and brain were grounded under cryogenic conditions (−196 °C) to 5 μm particles in a CryoMill (Retsch, Germany), using a single 25 mm i. d. steel ball (30 seconds, 25/sec frequency). The pulverized tissue was rapidly transferred (without thawing) into ice-cold, deoxygenated aqueous 95% methanol at a ratio of 1:9 (w/v). Cinnamic acid-d5, as internal standard, was dissolved in the aqueous methanol at concentration of 0.1 mg/L for the monitoring of the extraction protocol in biofluids and tissues.
(§3) All samples were extracted with an orbital shaker for 10 min at room temperature. The methanol extracts were then centrifuged for 5 min at 3600 rpm at 4 °C, decanted under a stream of nitrogen in 50 mL dark glass vessels and stored at −80 °C. Clean-up of extracted samples in methanol was performed by solid phase extraction (SPE), as previously described. Briefly, 5 mL of extracted samples were evaporated on a rotary evaporator and reconstituted in 10 mL of acidified water. Anthocyanins were extracted by solid-phase adsorption onto a hydrophobic matrix (Sep-Pak C18, 0.35 g, Waters, Milford, MA). […]

[3] = Urinary excretion after intravenous C3G; format: in vivo, Wistar rats
Text: as §1, §2, §3

[4] = Brain concentrations and tissue pharmacokinetics after intravenous C3G; format: in vivo, Wistar rats
Text: as §1, §2, §3

[5] = Liver concentrations and tissue pharmacokinetics after intravenous C3G; format: in vivo, Wistar rats
Text: as §1, §2, §3

[6] = male, Wistar, rat, plasma, iv, 668 nmol, non-compartmental analysis
[7] = male, Wistar, rat, plasma, iv, 668 nmol, two-compartment model analysis

Plasma concentration range with linear plasma/brain correlation ([2]; 0.25–20 min): 0.019 to 0.355 µM and 0.01878 to 0.35484 µM
Time after which half of the compound had been cleared from the plasma ([2]; distribution phase): 18 s
Time window needed to describe complete elimination ([2]; estimate): no more than 1 hour
k el ([2]; male, Wistar, rat, iv, non-compartmental analysis, plasma, i.v. 668 nmol, read-out: λz (first order terminal elimination rate constant) (converted)): 0.00167 s⁻¹
AUC0-t ([2]; male, Wistar, rat, iv, plasma, i.v. 668 nmol C3G, read-out: AUC0–20 (converted)): 19.4 nM·h
time to complete elimination ([2]; male, Wistar, rat, plasma, intravenous, 668 nmol, estimate, read-out: Time for complete elimination (5–6 half-lives)): 40 to 50 min
C0 ([2]; male, Wistar, rat, plasma, intravenous, 668 nmol, non-compartmental analysis): 0.429 µM
half-life ([2]; male, Wistar, rat, plasma, intravenous, 668 nmol, plasma, read-out: Mean half-life): < 8 min
C0 ([2]; male, Wistar, rat, plasma, intravenous, 668 nmol, two-compartment model analysis): 0.55 µM
MRT ([2]; male, Wistar, rat, plasma, intravenous, 668 nmol, two-compartment model analysis, read-out: MRT (converted)): 9.21 min
MRT ([2]; male, Wistar, rat, plasma, intravenous, 668 nmol, two-compartment model analysis, read-out: MRTP (mean residence time in the peripheral space) (converted)): 6.68 min
AUC(0-inf) [2, 6]: 22.5 nM·h
Cmax [2, 6]: 0.355 µM
Tmax [2, 6]: 0.25 min
C0 [2, 6]: 0.429 µM
clearance ([2]; male, Wistar, rat, plasma, iv, 668 nmol, non-compartmental analysis, read-out: CL (total body clearance)): 490 mL/min
MRT ([2]; male, Wistar, rat, plasma, iv, 668 nmol, non-compartmental analysis, read-out: MRT (converted)): 8.72 min
Vd ([2]; male, Wistar, rat, plasma, iv, 668 nmol, non-compartmental analysis, read-out: Vss): 4.31 L
Vd ([2]; male, Wistar, rat, plasma, iv, 668 nmol, non-compartmental analysis, read-out: Vz): 4.92 L
half-life ([2]; male, Wistar, rat, plasma, iv, 668 nmol, non-compartmental analysis, read-out: t1/2 (terminal elimination half-life)): 6.9 min
half-life ([2]; male, Wistar, rat, plasma, iv, 668 nmol, plasma, i.v. 668 nmol C3G, read-out: Half life): 6.9 min
AUC(0-inf) [2, 7]: 22.2 nM·h
C0 [2, 7]: 0.55 µM
MRT ([2]; male, Wistar, rat, plasma, iv, 668 nmol, two-compartment model analysis, read-out: MRT (converted)): 9.22 min
Vd ([2]; male, Wistar, rat, plasma, iv, 668 nmol, two-compartment model analysis, read-out: Vss): 4.58 L
half-life ([2]; male, Wistar, rat, plasma, iv, 668 nmol, two-compartment model analysis, read-out: t1/2e (elimination half-life)): 7.41 min
half-life ([2]; male, Wistar, rat, plasma, iv, 668 nmol, two-compartment model analysis, read-out: t1/2d (distribution half-life)): 0.3 min
concentration at 0.25 min ([2]; male, Wistar, rat, plasma, iv, 0.25 min after i.v. 668 nmol C3G, mean ± SEM n=4): 0.355 ± 0.0542 µM
concentration at 2 min ([2]; male, Wistar, rat, plasma, iv, 2 min after i.v. 668 nmol C3G, mean ± SEM n=4): 0.0938 ± 0.00901 µM
concentration at 5 min ([2]; male, Wistar, rat, plasma, iv, 5 min after i.v. 668 nmol C3G, mean ± SEM n=4): 0.0722 ± 0.00547 µM
concentration at 15 min ([2]; male, Wistar, rat, plasma, iv, 15 min after i.v. 668 nmol C3G, mean ± SEM n=4): 0.0175 ± 0.00204 µM
concentration at 20 min ([2]; male, Wistar, rat, plasma, iv, 20 min after i.v. 668 nmol C3G, mean ± SEM n=4): 0.0188 ± 0.00406 µM
AUMC ([2]; non-compartmental analysis): 11789.96 nM*min^2
Residual amount eliminated per min ([2]; per min): ca. 10%
Time for distribution to go to 50% completion ([2]; rat, in vivo): ca. 8 s
Fraction distributed beyond plasma at distribution equilibrium ([2]; steady state): 99.76%
Fraction present in plasma at distribution equilibrium ([2]; steady state): 0.24%
Share of MRT spent in the peripheral space ([2]; two-compartment model): 73.51%
AUMC ([2]; two-compartment model analysis): 12394.67 nM*min^2
CL (total body clearance) ([2]; two-compartment model analysis): 0.49 L/min
FAUC (AUC peripheral bioavailability, MRTP/MRTC) ([2]; two-compartment model analysis): 2.77
IC (number of circulations, MRTP/MTTP) ([2]; two-compartment model analysis): 3.55
MTT (mean transit time; MTTC, mean duration of one visit in central compartment) ([2]; two-compartment model analysis): 0.54 min
MTTp (mean transit time in the peripheral space) ([2]; two-compartment model analysis): 1.91 min
V1 (volume of central compartment) ([2]; two-compartment model analysis): 1.21 L
V2 (volume of peripheral compartment) ([2]; two-compartment model analysis): 3.36 L
a (T0 intercept of distribution kinetics) ([2]; two-compartment model analysis): 442.79 nM
b (T0 intercept of elimination phase) ([2]; two-compartment model analysis): 107.68 nM
k10 ([2]; two-compartment model analysis): 0.41 min^–1
k12 ([2]; two-compartment model analysis): 1.45 min^–1
k21 ([2]; two-compartment model analysis): 0.52 min^–1
α (slope factor) ([2]; two-compartment model analysis): 2.29 min^–1
β (slope factor) ([2]; two-compartment model analysis): 0.09 min^–1
Urine concentration ([3]; 0.25 min after i.v. 668 nmol C3G): 0.02 ± 0.01 nmol/g
Urine concentration ([3]; 2 min after i.v. 668 nmol C3G): 2.69 ± 0.82 nmol/g
Urine concentration ([3]; 5 min after i.v. 668 nmol C3G): 20.20 ± 2.61 nmol/g
Injected dose recovered in urine ([3]; 5 min after the injection): 15%
Urine concentration ([3]; 15 min after i.v. 668 nmol C3G): 11.95 ± 6.53 nmol/g
Urine concentration ([3]; 20 min after i.v. 668 nmol C3G): 5.66 ± 1.31 nmol/g
Mean concentration in brain ([4]; 0.25 min after i.v. 668 nmol C3G, mean ± SEM n=4, corrected for residual blood): 40.46 ± 9.67 pmol/g
Mean concentration in brain ([4]; 2 min after i.v. 668 nmol C3G): 7.48 ± 0.79 pmol/g
Mean concentration in brain ([4]; 5 min after i.v. 668 nmol C3G): 7.05 ± 0.55 pmol/g
Mean concentration in brain ([4]; 15 min after i.v. 668 nmol C3G): 2.18 ± 0.58 pmol/g
Mean concentration in brain ([4]; 20 min after i.v. 668 nmol C3G): 2.21 ± 0.44 pmol/g
MTTB (Mean Transit Time in the brain) ([4]; brain): 0.43 min
AUC0-t ([4]; brain, i.v. 668 nmol C3G): 119.9 pmol·min/g and 119.89 pmol·min/g
half-life ([4]; male, Wistar, rat, brain, iv, 668 nmol): 8.8 min
concentration at 15 sec ([4]; male, Wistar, rat, brain, iv, 668 nmol, 15 sec after i.v., read-out: Corresponding brain concentration assuming free diffusion in a water compartment): ~0.05 µM
Mean concentration in liver ([5]; 0.25 min after i.v. 668 nmol C3G, mean ± SEM n=4): 56.61 ± 11.79 pmol/g
Mean concentration in liver ([5]; 2 min after i.v. 668 nmol C3G): 19.22 ± 1.99 pmol/g
Mean concentration in liver ([5]; 5 min after i.v. 668 nmol C3G): 20.91 ± 2.61 pmol/g
Mean concentration in liver ([5]; 15 min after i.v. 668 nmol C3G): 11.02 ± 2.24 pmol/g
Mean concentration in liver ([5]; 20 min after i.v. 668 nmol C3G): 5.54 ± 0.33 pmol/g
MTTL (Mean Transit Time in the liver) ([5]; liver): 1.43 min
AUC0-t ([5]; liver, i.v. 668 nmol C3G): 345.3 pmol·min/g and 345.29 pmol·min/g
half-life ([5]; male, Wistar, rat, liver, iv, 668 nmol, read-out: Half-life): 8.15 min
SMILES: OC[C@H]1O[C@@H](Oc2cc3c(O)cc(O)cc3[o+]c2-c2ccc(O)c(O)c2)[C@H](O)[C@@H](O)[C@@H]1O [C3G, Cyanidin-3-O-β-glucoside]
Time frame to pass the endothelial cell membrane [1]: < 1 min
